Paper PMC8589628, “Characterization and Antimicrobial Studies of Iturin-Like and Bogorol-Like Lipopeptides From Brevibacillus spp. Strains GI9 and SKDU10” (Frontiers in Microbiology, 2021)
Peptide text beside a SMILES is read from it. * marks the point of attachment. X1 = CC(C)CCCCCCCCCCCCC(=O)*

What was measured:
V. cholerae MTCC 3904 [1] = assay: TEM of treated cells; assay type: cell-based; settings: V. cholerae MTCC 3904, 1X MIC, 30 min, 37°C
Protocol: Effect of antimicrobial compounds on cell membrane of test organisms was determined by transmission electron microscopy (TEM). Test strains, S. aureus MTCC 1430, V. cholerae MTCC 3904, and C. albicans MTCC 183 were cultured to mid-log phase, washed, and re-suspended in 1X PBS (OD 600 nm 0.2). The cell suspensions were incubated (37°C) with 1X MIC of purified antimicrobial compounds for 30 min. Cells after treatment were centrifuged, washed twice with PBS. For TEM, cells of S. aureus MTCC 1430 and V. cholerae MTCC 3904 were subjected to negative stain with 0.1% (w/v) sodium phosphotungstate (PTA, Sigma, United States) in water for 1 min, on a carbon-coated copper grid with 300 mesh (Polyscience, United States) and observed under transmission electron microscope (JEOL JEM 2100, United States) ([Raje et al., 2006]). For SEM, C. albicans MTCC 183 cells were immobilized on poly L-lysine glazed glass slides and incubated at 4°C for 2 h. Cells were fixed using Karnovsky’s fixative and serially dehydrated with gradient of ethanol, freeze dried, and platinum coated. ZEISS EV040 (United States) scanning electron microscope was employed to photograph the cells ([Raje et al., 2006]). Spores of A. brassicicola MTCC 2102 were treated with 2X MIC of lipopeptides for 2 h and observed under phase-contrast microscope (Nickon H600L, Japan). […]

S. aureus MTCC 1430 [2] = assay: TLC-bioautography assay; assay type: cell-based, Staphylococcus aureus; settings: 10 μg/ml loaded on TLC silica gel; overlay on NA, 24 h at 37°C
Protocol: Overlay thin-layer chromatography (TLC)-bioautography assay was used to determine the antimicrobial activity of the purified antimicrobial compounds ([Wedge and Nagle, 2000]). For bioautography, the antimicrobial compounds (10 μg/ml) were loaded on TLC silica gel plates in duplicates and were developed in one dimension using a solvent system containing chloroform: […]: water (65:12:4 v/v). TLC plate was cut into two vertical parts after running. One part of the TLC was used for direct detection of antimicrobial activity by overlaying it on NA containing S. aureus MTCC 1430 (about 10^6 cells ml^–1). After 1 h diffusion at 4°C, the TLC silica plate was removed and the NA plate was incubated for 24 h at 37°C. Other part of the TLC was sprayed with phosphomolybdic acid as a staining reagent for lipids.

S. aureus MTCC 1430 [3] = assay type: cell-based, Staphylococcus aureus; settings: MTCC 1430, 24 h
Protocol: (§1) The antimicrobial activity of HPLC purified compounds was determined against various test strains including S. aureus MTCC 1430, Vibrio cholera MTCC 3904, Bacillus subtilis MTCC 121, Listeria monocytogenes MTCC 839, C. albicans MTCC 183, C. albicans MTCC 1637, C. albicans MTCC 227, C. tropicalis MTCC 184, C. glabrata MTCC 3019, and C. inconspicua MTCC 1074. Antimicrobial activity was also tested against clinical Candida strains and phytopathogenic fungi viz. Fusarium moniliforme MTCC 158, Alternaria brassicicola MTCC 2102 and Colletotrichum acutatum MTCC 1037. Bacterial and Candida test strains were grown in NB and yeast malt broth (YMB), respectively. Fungal test strains were grown in potato dextrose broth (PDB). Minimum inhibitory concentrations (MICs) of purified compounds were evaluated against test organisms by using a microtiter plate dilution assay. Mid-log-phase test strains (5 × 10^5 CFU/ml) were incubated in a 96-well plate with different concentrations of the lipopeptides for 24–48 h at 37°C (final volume of 200 μl). OD was measured at 600 nm after 24 and 48 h for bacteria and yeast, respectively, using an ELISA microplate reader (Thermo Scientific, United States). MIC against phytopathogenic fungi was determined using the 96-well microtiter plate method ([Sharma et al., 2020]).

V. cholerae MTCC 3904 [4] = assay: Time kill assay; assay type: cell-based; settings: in PBS, CFU count
Protocol: Killing kinetics of purified compounds was performed using cells of S. aureus MTCC 1430, V. cholerae MTCC 3904, and C. albicans MTCC 183. Test strains were grown to obtain OD between 0.2 and 0.3 (OD 600 nm), centrifuged, and washed thrice with sterile PBS. Pellets were suspended in PBS and treated with different concentrations of active compounds. Cells after treatment were washed, resuspended, and serially diluted cell suspensions were plated on NA plates. After overnight incubation at 37°C, CFU were recorded ([Singh et al., 2021]).

C. glabrata MTCC 3019 = assay: MIC, microtiter plate dilution assay; assay type: cell-based; settings: YMB, 5 × 10^5 CFU/ml, 37°C, OD 600 nm after 48 h
Protocol: as §1

C. haemulonii MTCC 2766 = assay: MIC, microtiter plate dilution assay; assay type: cell-based; settings: YMB, 5 × 10^5 CFU/ml, 37°C, OD 600 nm after 48 h
Protocol: as §1

C. tropicalis MTCC 184 = assay: MIC, microtiter plate dilution assay; assay type: cell-based; settings: YMB, 5 × 10^5 CFU/ml, 37°C, OD 600 nm after 48 h
Protocol: as §1

F. moniliforme MTCC 158 = assay: MIC against phytopathogenic fungi, 96-well microtiter plate method; assay type: cell-based, Fusarium moniliforme; settings: PDB
Protocol: as §1

C. albicans 400054 = assay: MIC, microtiter plate dilution assay, clinical strain; assay type: cell-based, Candida albicans; settings: YMB, 37°C, OD 600 nm after 48 h
Protocol: (§2) Brevibacillus sp. strains GI-9 and SKDU10 were known to produce class IId bacteriocins identified as laterosporulins a ([Singh et al., 2012]; [Baindara et al., 2016]). Both strains were grown on nutrient agar (NA, Himedia, India). All test strains used in this study were obtained from Microbial Type Culture Collection and Gene bank (MTCC), Chandigarh, India. Clinical Candida strains were obtained from the National Culture Collection of Pathogenic Fungi (NCCPF), PGIMER, Chandigarh, India, and all strains were grown on recommended media.
as §1

C. auris 470126 = assay: as above; assay type: cell-based; settings: YMB, 37°C, OD 600 nm after 48 h
Protocol: as §2, §1

C. haemulonii 470125 = assay: as above; assay type: cell-based; settings: YMB, 37°C, OD 600 nm after 48 h
Protocol: as §2, §1

C. tropicalis 420024 = assay: as above; assay type: cell-based; settings: YMB, 37°C, OD 600 nm after 48 h
Protocol: as §2, §1

C. kefyr 410004 = assay: as above; assay type: cell-based; settings: YMB, 37°C, OD 600 nm after 48 h
Protocol: as §2, §1

[5] = system: A. brassicicola MTCC 2102; assay: MIC against phytopathogenic fungi, 96-well microtiter plate method; assay type: cell-based, Alternaria brassicicola; settings: PDB
Protocol: as §1

Row | Compound | Effect on cells (TEM) (V. cholerae MTCC 3904 [1]) | Inhibition of S. aureus MTCC 1430 in TLC-based bioautography (S. aureus MTCC 1430 [2]) | MIC value (S. aureus MTCC 1430 [3]) [µg/mL] | Time to complete reduction in the load (V. cholerae MTCC 3904 [4]; V. cholerae MTCC 3904, 1X MIC) [min] | Time to complete reduction in the load (V. cholerae MTCC 3904 [4]; V. cholerae MTCC 3904, 2X MIC) [min] | MIC value (C. glabrata MTCC 3019) [µg/mL] | MIC value (C. haemulonii MTCC 2766) [µg/mL] | MIC value (C. tropicalis MTCC 184) [µg/mL] | MIC value (F. moniliforme MTCC 158) [µg/mL] | MIC value (C. albicans 400054) [µg/mL] | MIC value (C. auris 470126) [µg/mL] | MIC value (C. haemulonii 470125) [µg/mL] | MIC value (C. tropicalis 420024) [µg/mL] | MIC value (C. kefyr 410004) [µg/mL] | MIC value [5] [µg/mL]
1 | CC(C)CCCCCCCCCCCCC(=O)N[C@H](C(=O)NCC(=O)N[C@@H](C)C(=O)N[C@@H](CO)C(=O)N[C@@H](Cc1c[nH]cn1)C(=O)N[C@@H](CCC(N)=O)C(=O)N[C@@H](CCC(N)=O)C(=O)O)[C@@H](C)O [ILL] (X1-TGASHQQ-OH; N-terminus assumed) | lysis with accumulation of debris on cell surface, altered morphology, and shrinkage | inhibited S. aureus MTCC 1430 | 150 to 170 | ≤ 60 | ≤ 60 |  |  |  |  |  |  |  |  |  | 
2 | Dhb-Tyr-Orn-Ile-Val-Val-Lys-Val-Leu-Asp-Val-Glu [BLL, bogorol like lipopeptide purified from Brevibacillus sp. strain SKDU10; 12 amino acids and C17 hydroxy fatty acid side chain] | irregularities in structure with rupturing of cell wall and lysis | active against S. aureus MTCC 1430 |  | ≤ 30 | ≤ 30 | 290 to 300 | 340 to 360 | 290 to 310 | 490 to 510 | 240 to 260 | 140 to 160 | 245 to 255 | 300 to 320 | 190 to 210 | 500 to 520
